Source: ChEMBL document CHEMBL5046300, “Potent Bactericidal Antimycobacterials Targeting the Chaperone ClpC1 Based on the Depsipeptide Natural Products Ecumicin and Ohmyungsamycin A” (2022)
Converted amounts (≈) assume the structure as drawn. The source made the active and inactive calls. The calls are words filed in the database; no cut-off is given here. *1 amine or outer side, *2 acyl side, *3 side chain or, on linkers, in order; H or OH if unused. Where a SMILES comes first, the peptide text is derived from it. Bridges are numbered along the chain shown (N, C = ends). [ ]: non-standard residue; d: D form. The star is where a group is joined. Phe(3R-OH) = O=C([C@@H](N[*:1])[C@H](O[*:3])c1ccccc1)[*:2]; NMeTrp(4-OMe) = CN[C@@H](Cc1c[nH]c2cccc(OC)c12)C(=O)O; NMeW = CN[C@@H](Cc1c[nH]c2ccccc12)C(=O)O; NMeaIle = CC[C@@H](C)[C@H](NC)C(=O)O; NMe2Val = CC(C)[C@@H](C(=O)*)N(C)C; NMeF = CN[C@@H](Cc1ccccc1)C(=O)O; NMeT = CN[C@H](C(=O)O)[C@@H](C)O; NMeL = CN[C@@H](CC(C)C)C(=O)O; NMeV = CN[C@H](C(=O)O)C(C)C; NMeA = CN[C@@H](C)C(=O)O

What was measured:
[1] = test system: Mycobacterium tuberculosis; test: Antimycobacterial activity against Mycobacterium tuberculosis mc2 6230 measured after 7 days; format: functional; conditions: mc2 6230, 168 h, time 7 day
[2] = test system: Mycolicibacterium smegmatis; test: Enhancement of Mycobacterium smegmatis ClpC1 ATPase activity assessed as inhibition of ClpC1/ClpP1P2 complex-mediated beta-casein proteolysis incubated for 30 to 60 mins by in vitro degradation assay; conditions: filed as activator, time 30-60 min
[3] = test system: Mycobacterium tuberculosis; test: Antimycobacterial activity against Mycobacterium tuberculosis H37Rv infected in human THP-1 cells assessed as log reduction in bacterial growth at 10 uM incubated for 3 to 4 weeks by intracellular killing assay; format: functional; conditions: time 3-4 weeks
Escherichia coli = test: Antibacterial activity against Escherichia coli K-12 MG1655 assessed as bacterial growth inhibition incubated for 18 to 20 hrs by broth microdilution method; format: functional; conditions: time 18-20 hrs
Klebsiella aerogenes = test: Antibacterial activity against Klebsiella aerogenes ATCC 35029 assessed as bacterial growth inhibition incubated for 18 to 20 hrs by broth microdilution method; format: functional; conditions: time 18-20 hrs
Klebsiella pneumoniae = test: Antibacterial activity against Klebsiella pneumoniae ATCC 700603 assessed as bacterial growth inhibition incubated for 18 to 20 hrs by broth microdilution method; format: functional; conditions: time 18-20 hrs
[4] = test system: Providencia alcalifaciens; test: Antibacterial activity against Providencia alcalifaciens ATCC 9886 assessed as bacterial growth inhibition incubated for 18 to 20 hrs by broth microdilution method; format: functional; conditions: time 18-20 hrs
Salmonella enterica = test: Antibacterial activity against Salmonella enterica ATCC 13311 assessed as bacterial growth inhibition incubated for 18 to 20 hrs by broth microdilution method; format: functional; conditions: time 18-20 hrs
Shigella sonnei = test: Antibacterial activity against Shigella sonnei ATCC 25931 assessed as bacterial growth inhibition incubated for 18 to 20 hrs by broth microdilution method; format: functional; conditions: time 18-20 hrs
[5] = test system: Yersinia pseudotuberculosis; test: Antibacterial activity against Yersinia pseudotuberculosis ATCC 6904 assessed as bacterial growth inhibition incubated for 18 to 20 hrs by broth microdilution method; format: functional; conditions: time 18-20 hrs
Acinetobacter baumannii = test: Antibacterial activity against Acinetobacter baumannii ATCC 19606 assessed as bacterial growth inhibition incubated for 18 to 20 hrs by broth microdilution method; format: functional; conditions: time 18-20 hrs
Pseudomonas aeruginosa = test: Antibacterial activity against Pseudomonas aeruginosa ATCC 27853 assessed as bacterial growth inhibition incubated for 18 to 20 hrs by broth microdilution method; format: functional; conditions: time 18-20 hrs
Vibrio cholerae = test: Antibacterial activity against Vibrio cholerae A1552 El Tor assessed as bacterial growth inhibition incubated for 18 to 20 hrs by broth microdilution method; format: functional; conditions: time 18-20 hrs
Brucella anthropi = test: Antibacterial activity against Ochrobactrum anthropi ATCC 49687 assessed as bacterial growth inhibition incubated for 18 to 20 hrs by broth microdilution method; format: functional; conditions: time 18-20 hrs
Bacillus subtilis = test: Antibacterial activity against Bacillus subtilis ATCC 6051 assessed as bacterial growth inhibition incubated for 18 to 20 hrs by broth microdilution method; format: functional; conditions: time 18-20 hrs
Listeria ivanovii = test: Antibacterial activity against Listeria ivanovii BAA-139 assessed as bacterial growth inhibition incubated for 18 to 20 hrs by broth microdilution method; format: functional; conditions: time 18-20 hrs
Staphylococcus aureus [6] = test: Antibacterial activity against methicillin-sensitive Staphylococcus aureus ATCC 29213 assessed as bacterial growth inhibition incubated for 18 to 20 hrs by broth microdilution method; format: functional; conditions: time 18-20 hrs
Staphylococcus aureus [7] = test: Antibacterial activity against methicillin-resistant Staphylococcus aureus BAA-44 assessed as bacterial growth inhibition incubated for 18 to 20 hrs by broth microdilution method; format: functional; conditions: time 18-20 hrs
[8] = test system: Staphylococcus epidermidis; test: Antibacterial activity against Staphylococcus epidermidis ATCC 14990 assessed as bacterial growth inhibition incubated for 18 to 20 hrs by broth microdilution method; format: functional; conditions: time 18-20 hrs
Enterococcus faecium = test: Antibacterial activity against Enterococcus faecium ATCC 6569 assessed as bacterial growth inhibition incubated for 18 to 20 hrs by broth microdilution method; format: functional; conditions: time 18-20 hrs
Enterococcus faecalis = test: Antibacterial activity against Enterococcus faecalis ATCC 29212 assessed as bacterial growth inhibition incubated for 18 to 20 hrs by broth microdilution method; format: functional; conditions: time 18-20 hrs
Streptococcus pneumoniae = test: Antibacterial activity against Streptococcus pneumoniae ATCC 49619 assessed as bacterial growth inhibition incubated for 18 to 20 hrs by broth microdilution method; format: functional; conditions: time 18-20 hrs
[9] = test system: Mycobacterium tuberculosis; test: Synergistic antimycobacterial activity against Mycobacterium tuberculosis mc2 6230 assessed as fractional inhibitory concentration incubated for 7 days in presence of rifampicin by checkerboard assay; format: functional; conditions: time 7 day
[10] = test system: Mycobacterium tuberculosis; test: Synergistic antimycobacterial activity against Mycobacterium tuberculosis mc2 6230 assessed as fractional inhibitory concentration incubated for 7 days in presence of isoniazid by checkerboard assay; format: functional; conditions: time 7 day
[11] = test system: Mycobacterium tuberculosis; test: Synergistic antimycobacterial activity against Mycobacterium tuberculosis mc2 6230 assessed as fractional inhibitory concentration incubated for 7 days in presence of pyrazinamide by checkerboard assay; format: functional; conditions: time 7 day
[12] = test system: Mycobacterium tuberculosis; test: Synergistic antimycobacterial activity against Mycobacterium tuberculosis mc2 6230 assessed as fractional inhibitory concentration incubated for 7 days in presence of ethambutol by checkerboard assay; format: functional; conditions: time 7 day
[13] = test system: Mycobacterium tuberculosis; test: Synergistic antimycobacterial activity against Mycobacterium tuberculosis mc2 6230 assessed as fractional inhibitory concentration incubated for 7 days in presence of clofazimine by checkerboard assay; format: functional; conditions: time 7 day
[14] = test system: Mycobacterium tuberculosis; test: Synergistic antimycobacterial activity against Mycobacterium tuberculosis mc2 6230 assessed as fractional inhibitory concentration incubated for 7 days in presence of bedaquiline by checkerboard assay; format: functional; conditions: time 7 day
[15] = test system: Mycobacterium tuberculosis; test: Antimycobacterial activity against Mycobacterium tuberculosis mc2 6230 measured after 7 days by Time kill assay; format: functional, organism-based; conditions: time 7.0 day
[16] = test system: Mycolicibacterium smegmatis; test: Enhancement of hexameric Mycobacterium smegmatis ClpC1 ATPase activity assessed as fold increase at 100 uM incubated for 30 mins by ATP/NADH spectrophotometric analysis; conditions: filed as activator
[17] = test system: Mycobacterium tuberculosis; test: Bactericidal activity against Mycobacterium tuberculosis mc2 6230 at 10 time MIC monitored for 28 days under hypoxic non-replicating culture condition by time kill assay; format: functional, organism-based; conditions: time 28.0 day
[18] = test system: Mycobacterium tuberculosis; test: Antibacterial activity against Mycobacterium tuberculosis mc2 6230 assessed as reduction in viable cells at 10 times MIC measured for 42 days in solid media by time kill assay; format: functional; conditions: time 42 day
Mycobacterium marinum [19] = test: Antimycobacterial activity against mid-exponential phase Mycobacterium marinum M strain incubated for 2 days by fluorescence assay; format: functional; conditions: 48 h, time 2 day
Mycobacterium marinum [20] = test: Antimycobacterial activity against tdTomato fluorescent Mycobacterium marinum infected in zebrafish assessed as reduction in bacterial burden at 25 uM pre-infected with bacteria for 4 to 5 days followed by compound addition and measured after day 6 post infection by microscopic analysis relative to control; format: functional; parameters: scale not given: the % may be the effect or the level left; conditions: time 4-5 day
Mycobacterium marinum [21] = test: Antimycobacterial activity against Mycobacterium marinum infected in zebrafish assessed as reduction in bacterial burden at 10 uM after 6 days post infection; format: functional; parameters: scale not given: the % may be the effect or the level left; conditions: time 6 day
Mycobacterium marinum [22] = test: Antimycobacterial activity against Mycobacterium marinum infected in zebrafish assessed as reduction in bacterial burden at 10 uM in presence of rifampicin after 6 days post infection; format: functional; parameters: scale not given: the % may be the effect or the level left; conditions: time 6 day

SMILES | MIC [1] [µM] | Activity [3] [log10CFU/ml] | MIC (Escherichia coli) [µM] | MIC (Klebsiella aerogenes) [µM] | MIC (Klebsiella pneumoniae) [µM] | MIC [4] [µM] | MIC (Salmonella enterica) [µM] | MIC (Shigella sonnei) [µM] | MIC [5] [µM] | MIC (Acinetobacter baumannii) [µM] | MIC (Pseudomonas aeruginosa) [µM] | MIC (Vibrio cholerae) [µM] | MIC (Brucella anthropi) [µM] | MIC (Bacillus subtilis) [µM] | MIC (Listeria ivanovii) [µM] | MIC (Staphylococcus aureus [6]) [µM] | MIC (Staphylococcus aureus [7]) [µM] | MIC [8] [µM] | MIC (Enterococcus faecium) [µM] | MIC (Enterococcus faecalis) [µM] | further results
CN[C@H](C(=O)N[C@H](C(=O)N[C@@H]1C(=O)N(C)[C@@H]([C@@H](C)O)C(=O)N[C@@H](C(C)C)C(=O)N(C)[C@@H](CC(C)C)C(=O)N[C@@H](C(C)C)C(=O)N(C)[C@@H](Cc2ccccc2)C(=O)N(C)[C@@H](Cc2c[nH]c3ccccc23)C(=O)N[C@@H](C(C)C)C(=O)N[C@@H](Cc2ccccc2)C(=O)N[C@@H](C(C)C)C(=O)O[C@@H]1C)C(C)C)C(C)C (H-[NMeV]VT[NMeT]V[NMeL]V[NMeF][NMeW]VFV; ester 3-C) | 0.125 (≈ 0.183 µg/mL) |  |  |  |  |  |  |  |  |  |  |  |  |  |  |  |  |  |  |  | inhibition [2]: Active
CC[C@@H](C)[C@@H](C(=O)N[C@@H]1C(=O)N(C)[C@@H]([C@@H](C)O)C(=O)N[C@@H](C(C)C)C(=O)N(C)[C@@H](CC(C)C)C(=O)N[C@@H](C(C)C)C(=O)N(C)[C@@H](C(C)C)C(=O)N(C)[C@@H](Cc2c[nH]c3cccc(OC)c23)C(=O)N[C@@H](C(C)C)C(=O)N[C@@H]([C@H](O)c2ccccc2)C(=O)N[C@@H](C(C)C)C(=O)O[C@@H]1C)N(C)C(=O)[C@@H](NC(=O)[C@H](C(C)C)N(C)C)C(C)C (NMe2Val-V[NMeaIle]T[NMeT]V[NMeL]V[NMeV][NMeTrp(4-OMe)]V[Phe(3R-OH)]V; ester 3-C) | 1 (≈ 1.6 µg/mL) | 1 |  |  |  |  |  |  |  |  |  |  |  |  |  |  |  |  |  |  | 
CN[C@H](C(=O)N[C@H](C(=O)N[C@@H]1C(=O)N(C)[C@@H]([C@@H](C)O)C(=O)N[C@@H](C(C)C)C(=O)N(C)[C@@H](CC(C)C)C(=O)N[C@@H](C(C)C)C(=O)N(C)[C@@H](C)C(=O)N(C)[C@@H](Cc2c[nH]c3ccccc23)C(=O)N[C@@H](C(C)C)C(=O)N[C@@H](Cc2ccccc2)C(=O)N[C@@H](C(C)C)C(=O)O[C@@H]1C)C(C)C)C(C)C (H-[NMeV]VT[NMeT]V[NMeL]V[NMeA][NMeW]VFV; ester 3-C) | 0.5 (≈ 0.692 µg/mL) |  | > 128 | 128 (≈ 177 µg/mL) | > 128 | > 128 | > 128 | > 128 | > 128 | > 128 | > 128 | > 128 | > 128 | 128 (≈ 177 µg/mL) | > 128 | > 128 | > 128 | > 128 | > 128 | > 128 | MIC (Streptococcus pneumoniae): > 128 µM; FIC [9]: 0.375; FIC [10]: 2; FIC [11]: 2; FIC [12]: 0.75; FIC [13]: 2; FIC [14]: 3; Activity [15]: Active; fold change (FC) [16]: 3; Activity [17]: Active; Activity [18]: 6 log10CFU/ml; MIC50 (Mycobacterium marinum [19]): 1.44 µM (≈ 1.99 µg/mL); Activity (Mycobacterium marinum [20]): 76%; Activity (Mycobacterium marinum [21]): 50%; Activity (Mycobacterium marinum [22]): 83%; Activity [2]: Active
CO[C@H]1/C=C/O[C@@]2(C)Oc3c(C)c(O)c4c(O)c(c(/C=N/N5CCN(C)CC5)c(O)c4c3C2=O)NC(=O)/C(C)=C\C=C\[C@H](C)[C@H](O)[C@@H](C)[C@@H](O)[C@@H](C)[C@H](OC(C)=O)[C@@H]1C [RIFAMPIN] |  | 1 | 4 (≈ 3.29 µg/mL) | 8 (≈ 6.58 µg/mL) | 16 (≈ 13.2 µg/mL) | 8 (≈ 6.58 µg/mL) | 2 (≈ 1.65 µg/mL) | 1.7 (≈ 1.4 µg/mL) | 11 (≈ 9.05 µg/mL) | 1 (≈ 0.823 µg/mL) | 53 (≈ 43.6 µg/mL) | 128 (≈ 105 µg/mL) | 4 (≈ 3.29 µg/mL) | 4 (≈ 3.29 µg/mL) | 0.19 (≈ 0.156 µg/mL) | 0.02 (≈ 0.0165 µg/mL) | 0.01 (≈ 0.00823 µg/mL) | 0.02 (≈ 0.0165 µg/mL) | 21 (≈ 17.3 µg/mL) | 1 (≈ 0.823 µg/mL) | MIC (Streptococcus pneumoniae): 0.11 µM (≈ 0.0905 µg/mL); Activity (Mycobacterium marinum [21]): 27%
